Data published in patent publication US8147880B2, “Polyacetylenic compounds for stimulating insulin gene exression, production and secretion” (Academia Sinica, priority 2007, dated 2012).

Legend:
RIN-m5F cells [1] = test: Cytopiloyne-induced insulin secretion after pre-treatment with channel modulators / calcium chelator; assay type: cell-based, rat; settings: then cytopiloyne 5 μg/ml for 10 min
Procedure: RIN-[…] cells were pre-treated with vehicle, diazoxide (100 μM), EGTA (10 μM), or nimodipine (1 μM) for 30 minutes. They were then incubated with cytopiloyne at 5 μg/ml for 10 min. Insulin levels in the cell medium were determined using an insulin Elisa kit.

db/db mice [2] = test: Intraperitoneal glucose tolerance test in diabetic db/db mice after oral administration; assay type: in vivo; settings: db/db mice fasted 12 hours, glucose 0.5 g/kg i.p. half an hour later, vs PBS
Procedure: The db/db mice were purchased from Jackson Laboratory, and then maintained and handled according to the guidelines of Academia Sinica Institutional Animal Care and Utilization Committee (Taiwan). Glibenclamide was purchased from MP Biomedical Inc.
Diabetic db/db mice aged 7-8 weeks were fasted for 12 hours (water allowed) and orally administered with PBS, cytopiloyne at 0.5 mg/kg or Glimepiride at 2.5 mg/kg. Half an hour later, the mice were intraperitoneally injected with glucose at 0.5 g/kg body weight. Blood glucose levels were monitored at 0, 0.5, 1, 1.5, 2 and 3 hours using Elite glucometer.

[3] = tested on: Primary β cells from mice; test: Insulin levels (intracellular anti-insulin staining, Elisa) in primary β cells; assay type: cell-based; settings: mouse primary β cells; 2.5, 5, or 10 μg/ml for 24 hours; vs vehicle
Procedure: (§1) Primary β cells from mice were seeded in 9-cm^2 plates in a glucose-free RPMI 1640 medium. Both mouse primary β cells and RIN-m5F cells were treated with vehicle or cytopiloyne at 2.5, 5, or 10 μg/ml for 24 hours. The treated cells were subsequently subjected to intracellular staining with anti-insulin antibody (H86, Santa Cruz Biotechnology, CA, USA) and FITC-conjugated anti-rabbit antiserum (BD Biosciences, CA, USA) according to the manufacturer's instruction. The insulin levels in the cell media were determined using an insulin Elisa kit.

human insulin promoter = test: Insulin promoter luciferase reporter (pINS-Luc / pRL-TK) in transfected RIN-m5F cells; assay type: cell-based; settings: 2.5, 10, or 15 μg/ml for 24 hours
Procedure: The pINS-DCR3 vector containing a human insulin promoter was digested by SphI and BamHI and then cloned into a pcDNAΔCMVlue vector to generate the plasmid pINS-Luc. The plasmid pRL-TK containing a thymidine kinase promoter and a Renilla luciferase reporter gene was purchased from Promega.
RIN-m5F cells transfected with pINS-Luc and pRL-TK plasmids were incubated with vehicle, high glucose (16.7 mM), or cytopiloyne at 2.5, 10, or 15 μg/ml for 24 hours.

db/db mice [4] = test: Blood glucose levels in fasted diabetic db/db mice after intraperitoneal injection; assay type: in vivo; settings: db/db mice 7-8 weeks old, fasted 12 hours; 25 μg/kg intraperitoneally; at two hours; vs PBS
Procedure: The db/db mice were purchased from Jackson Laboratory (Bar Harbor, Me., U.S.A.), and then maintained and handled according to the guidelines of Academia Sinica Institutional Animal Care and Utilization Committee (Taiwan).
Diabetic db/db mice of 7-8 weeks old were fasted for 12 hours (water allowed), and then intraperitoneally injected with phosphate-buffered saline (PBS) or cytopiloyne at 25 μg/kg, blood glucose levels in the mice were monitored at 0, 1, 2, 4, and 6 hours using Elite glucometer.

RIN-m5F cells [5] = test: Insulin levels (intracellular anti-insulin staining, Elisa) in RIN-m5F cells; assay type: cell-based, rat; settings: 2.5, 5, or 10 μg/ml for 24 hours, vs vehicle
Procedure: as §1

RIN-m5F cells [6] = test: Insulin secretion into cell medium (insulin Elisa kit); assay type: cell-based, rat; settings: 2.5, 10, and 15 μg/mL for 24 hours
Procedure: RIN-m5F cells, a rat β cell line, were obtained from the American Type Culture Collection (ATCC). Glucose-free RPMI medium was purchased from Life Technology. The cells were grown in a glucose-free RPMI 1640 medium supplemented with 10% FCS, penicillin (100 U/ml), streptomycin (100 μg/ml), 2-mercapoethanol (50 μM), sodium pyruvate (1 mM), and glutamate (292 μg/ml).
The cells were separately incubated with vehicle, glucose at a high dose (16.7 mM), glucose at a low dose (3.6 mM), and cytopiloyne at 2.5, 10, and 15 μg/mL for 24 hours. Insulin levels in the cell medium were determined using an insulin Elisa kit (Mercodia, Uppsala, Sweden).

SMILES: O=C(O)CN(CCOCCOCCN(CC(=O)O)CC(=O)O)CC(=O)O [EGTA]
- effect on cytopiloyne-mediated insulin secretion (RIN-m5F cells [1]; pre-treatment 10 μM for 30 minutes): suppressed cytopiloyne-mediated insulin secretion

SMILES: CCC1=C(C)CN(C(=O)NCCc2ccc(S(=O)(=O)NC(=O)N[C@H]3CC[C@H](C)CC3)cc2)C1=O [Glimepiride, reference compound]
- glucose tolerance (db/db mice [2]; 2.5 mg/kg orally): improved glucose tolerance

SMILES: CC#CC#CC#CC#CCCC(CO)OC1OC(CO)C(O)C(O)C1O (stereo not drawn) [cytopiloyne]
- insulin levels [3]: elevated insulin levels
- insulin transcription (human insulin promoter): stimulated insulin transcription in RIN-m5F cells in a dose-dependent manner
- blood glucose levels (db/db mice [4]): significantly decreased
- insulin levels (RIN-m5F cells [5]): elevated insulin levels
- insulin secretion (RIN-m5F cells [6]): significantly enhanced insulin secretion
- glucose tolerance (db/db mice [2]; 0.5 mg/kg orally): improved glucose tolerance as effectively as Glimepiride

SMILES: CC1=NS(=O)(=O)c2cc(Cl)ccc2N1 [diazoxide]
- effect on cytopiloyne-induced insulin secretion (RIN-m5F cells [1]; pre-treatment 100 μM for 30 minutes): suppressed cytopiloyne-induced insulin secretion
